In patent US11802120B2, “Fused cyclic urea derivatives as CRHR2 antagonist” (RaQualia Pharma Inc., priority 2018, dated 2023):

Molecular target: T1, human CRHR2-alpha (Homo sapiens, UniProt Q13324)
T1 sequence (Q13324 1-411): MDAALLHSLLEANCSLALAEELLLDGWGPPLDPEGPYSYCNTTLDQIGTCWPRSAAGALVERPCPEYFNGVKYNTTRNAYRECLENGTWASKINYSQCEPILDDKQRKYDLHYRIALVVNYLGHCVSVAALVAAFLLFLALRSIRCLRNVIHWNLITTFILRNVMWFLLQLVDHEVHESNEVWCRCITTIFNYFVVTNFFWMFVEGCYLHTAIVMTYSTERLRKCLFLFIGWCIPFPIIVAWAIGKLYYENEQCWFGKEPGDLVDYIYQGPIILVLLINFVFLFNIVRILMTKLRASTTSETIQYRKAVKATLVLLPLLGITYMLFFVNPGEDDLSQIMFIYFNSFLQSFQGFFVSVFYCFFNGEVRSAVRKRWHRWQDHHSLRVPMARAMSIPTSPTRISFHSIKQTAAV
Experiment: cAMP functional assay for human CRHR2 (LANCE Ultra cAMP, TR-FRET)
Format: cell-based
Conditions: CHO-K1 cells expressing human CRHR2-alpha, agonist human urocortin2 at EC80, cAMP; read-out: IC50 against CRHR2
Summary of the method: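 Antagonism measured in CHO-K1 cells stably expressing the receptor, serum-starved 7 h then cryopreserved. Thawed cells in HBSS buffer with 0.1% BSA, 0.5 mM IBMX, 5 mM Hepes pH 7.4 were preincubated with compound 30 min at 25° C, then stimulated 30 min with EC80 agonist: urocortin2 for CRHR2, CRF for CRHR1.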

Row | Structure (SMILES) | IC50 [nM]
1 | CNc1ncc(-n2c(=O)n(C[C@H]3CC[C@H](NC(=O)c4cc(Cl)cnc4C(F)F)CC3)c3ccccc32)cc1F [Example 639, 5-chloro-2-(difluoromethyl)-N-((1r,4r)-4-((3-(5-fluoro-6-(methylamino)pyridin-3-yl)-2-oxo-2,3-dihydro-1H-benzo[d]imidazol-1-yl)methyl)cyclohexyl)nicotinamide] | < 300
2 | O=C(N[C@H]1CC[C@H](Cn2c(=O)n(-c3cccc(N4CCNC4=O)n3)c3ccccc32)CC1)c1cc(Cl)cnc1C(F)F [Example 773, 5-chloro-2-(difluoromethyl)-N-((1r,4r)-4-((2-oxo-3-(6-(2-oxoimidazolidin-1-yl)pyridin-2-yl)-2,3-dihydro-1H-benzo [d]imidazol-1-yl)methyl)cyclo-hexyl)nicotinamide] | < 300
3 | Cc1ncc(Cl)cc1C(=O)N[C@H]1CC[C@H](Cn2c(=O)n(-c3cnc4c(C)n[nH]c4c3)c3ccccc32)CC1 [Example 172, 5-chloro-2-methyl-N-((1r,4r)-4-((3-(3-methyl-1H-pyrazolo[4,3-b]pyridin-6-yl)-2-oxo-2,3-dihydro-1H-benzo[d]imidazol-1-yl)methyl)cyclohexyl)nicotinamide] | < 300
4 | Cc1ncc(Cl)cc1C(=O)N[C@H]1CC[C@H](Cn2c(=O)n(-c3cncc(-c4cnn(C)c4)c3)c3ccccc32)CC1 [Example 679, 5-chloro-2-methyl-N-((1r,4r)-4-((3-(5-(1-methyl-1H-pyrazol-4-yl)pyridin-3-yl)-2-oxo-2,3-dihydro-1H-benzo[d]imidazol-1-yl)methyl)cyclohexyl) nicotinamide] | < 300
5 | COc1ccc(Cl)c(-n2c(=O)n(C[C@H]3CC[C@H](NC(=O)c4cc(Cl)cnc4C(F)F)CC3)c3ncccc32)c1 [Example 675, 5-chloro-N-((1r,4r)-4-((1-(2-chloro-5-methoxyphenyl)-2-oxo-1H-imidazo[4,5-b]pyridin-3(2H)-yl)methyl)cyclohexyl)-2-(difluoro-methyl)nicotinamide] | < 300
6 | Cc1ncc(Cl)cc1C(=O)N[C@H]1CC[C@H](Cn2c(=O)n(-c3ccc4c(c3)CCC4)c3ncccc32)CC1 [Example 189, 5-chloro-N-((1r,4r)-4-((3-(2,3-dihydro-1H-inden-5-yl)-2-oxo-2,3-dihydro-1H-imidazo[4,5-b]pyridin-1-yl)methyl)cyclohexyl)-2-methylnicotinamide] | < 300
7 | Cc1ncc(Cl)cc1C(=O)N[C@H]1CC[C@H](Cn2c(=O)n(-c3ccc4c(C(N)=O)noc4c3)c3ccccc32)CC1 [Example 243, 6-(3-(((1r,4r)-4-(5-chloro-2-methylnicotinamido)cyclohexyl)methyl)-2-oxo-2,3-dihydro-1H-benzo[d]imidazol-1-yl)benzo[d]isoxazole-3-carboxamide] | < 300
8 | Cc1ccc(-n2c(=O)n(C[C@H]3CC[C@H](NC(=O)c4cc(Cl)cnc4C(F)(F)F)CC3)c3ccccc32)c(C)n1 [Example 315, 5-chloro-N-((1r,4r)-4-((3-(2,6-dimethylpyridin-3-yl)-2-oxo-2,3-dihydro-1H-benzo [d]imidazol-1-yl)methyl)cyclohexyl)-2-(trifluoro-methyl)nicotinamide] | < 300
9 | Cc1ncc(Cl)cc1C(=O)N[C@H]1CC[C@H](Cn2c(=O)n(-c3ccc(-c4cnco4)nc3)c3ccccc32)CC1 [Example 202, 5-chloro-2-methyl-N-((1r,4r)-4-((3-(6-(oxazol-5-yl)pyridin-3-yl)-2-oxo-2,3-dihydro-1H-benzo[d]imidazol-1-yl)methyl)cyclo-hexyl)nicotinamide] | < 300

Now from value to molecule:

Row | IC50 [nM] | Structure (SMILES)
10 | < 300 | Cc1ncc(Cl)cc1C(=O)N[C@H]1CC[C@H](Cn2c(=O)n(-c3cnc4c(c3)nnn4C)c3ccccc32)CC1 [Example 275, 5-chloro-2-methyl-N-((1r,4r)-4-((3-(3-methyl-3H-[1,2,3]triazolo[4,5-b]pyridin-6-yl)-2-oxo-2,3-dihydro-1H-benzo [d]imidazol-1-yl)methyl)cyclohexyl)nicotinamide]
11 | < 300 | Cc1ncc(Cl)cc1C(=O)N[C@H]1CC[C@H](Cn2c(=O)n(-c3ccc4c(C)n[nH]c4c3)c3ccccc32)CC1 [Example 205, 5-chloro-2-methyl-N-((1r,4r)-4-((3-(3-methyl-1H-indazol-6-yl)-2-oxo-2,3-dihydro-1H-benzo[d]imidazol-1-yl)methyl)cyclohexyl)nicotinamide]
12 | < 300 | O=C(N[C@H]1CC[C@H](Cn2c(=O)n(-c3cnc4[nH]c(CO)cc4c3)c3ccccc32)CC1)c1cc(Cl)cnc1C(F)F [Example 709, 5-chloro-2-(difluoromethyl)-N-((1r,4r)-4-((3-(2-(hydroxymethyl)-1H-pyrrolo[2,3-b]pyridin-5-yl)-2-oxo-2,3-dihydro-1H-benzo[d]imidazol-1-yl)methyl)cyclohexyl)nicotinamide]
13 | < 300 | Cc1ncc(Cl)cc1C(=O)N[C@H]1CC[C@H](Cn2c(=O)n(-c3cncc(N4CCOCC4)c3)c3ccccc32)CC1 [Example 413, 5-chloro-2-methyl-N-((1r,4r)-4-((3-(5-morpholinopyridin-3-yl)-2-oxo-2,3-dihydro-1H-benzo[d]imidazol-1-yl)methyl)cyclohexyl)nicotinamide]
14 | < 300 | COCCN(C)c1ccc(-n2c(=O)n(C[C@H]3CC[C@H](NC(=O)c4cc(Cl)cnc4C)CC3)c3ccccc32)cn1 [Example 53, 5-chloro-N-((1r,4r)-4-((3-(6-((2-methoxyethyl)(methyl)amino)pyridin-3-yl)-2-oxo-2,3-dihydro-1H-benzo[d]imidazol-1-yl)methyl)cyclohexyl)-2-methylnicotinamide]
15 | < 300 | Cc1ccc(-n2c(=O)n(C[C@H]3CC[C@H](NC(=O)c4cc(Cl)cnc4C)CC3)c3ccccc32)c(C#N)c1 [Example 247, 5-chloro-N-((1r,4r)-4-((3-(2-cyano-4-methylphenyl)-2-oxo-2,3-dihydro-1H-benzo[d]imidazol-1-yl)methyl)cyclo-hexyl)-2-methylnicotinamide]
16 | < 300 | COc1ccc(-n2c(=O)n(C[C@H]3CC[C@H](NC(=O)c4cc(Cl)cnc4C)CC3)c3ccccc32)c(C#N)c1 [Example 231, 5-chloro-N-((1r,4r)-4-((3-(2-cyano-4-methoxyphenyl)-2-oxo-2,3-dihydro-1H-benzo[d]imidazol-1-yl)methyl)cyclo-hexyl)-2-methylnicotinamide]
17 | < 300 | O=C(N[C@H]1CC[C@H](Cn2c(=O)n(-c3ccc(O[C@@H]4CCOC4)nc3)c3ccccc32)CC1)c1cc(Cl)cnc1C(F)F [Example 428, 5-chloro-2-(difluoromethyl)-N-((1R,4r)-4-((2-oxo-3-(6-(((R)-tetrahydrofuran-3-yl)oxy)pyridin-3-yl)-2,3-dihydro-1H-benzo[d]imidazol-1-yl)methyl)cyclohexyl)nicotinamide]
18 | < 300 | Cc1cc(N2CCCC2=O)ncc1-n1c(=O)n(C[C@H]2CC[C@H](NC(=O)c3cc(Cl)cnc3C(F)F)CC2)c2ccccc21 [Example 561, 5-chloro-2-(difluoromethyl)-N-((1r,4r)-4-((3-(4-methyl-6-(2-oxopyrrolidin-1-yl)pyridin-3-yl)-2-oxo-2,3-dihydro-1H-benzo[d]imidazol-1-yl)methyl)cyclohexyl) nicotinamide]
19 | < 300 | Cc1ncc(Cl)cc1C(=O)N[C@H]1CC[C@H](Cn2c(=O)n(-c3ccccc3Cl)c3cccnc32)CC1 [Example 256, 5-chloro-N-((1r,4r)-4-((1-(2-chlorophenyl)-2-oxo-1H-imidazo[4,5-b]pyridin-3(2H)-yl)methyl)cyclohexyl)-2-methylnicotinamide]
